The values below come from patent US20230129364A1, “PYRROLIDINE DERIVATIVE, AND PHARMACEUTICAL COMPOSITION FOR PREVENTING OR TREATING BETA-AMYLOID OR TAU PROTEIN-ASSOCIATED DISEASES CONTAINING SAME” (YONSEI UNIVERSITY, UNIVERSITY - INDUSTRY FOUNDATION (UIF), priority 2019, published 2023).

Common to all, as to type: biochemical
Assay [1] has as its target T1, Tau protein (wild-type K18) (Homo sapiens, UniProt P10636).
T1 construct: Tau protein (wild-type K18)
Put plainly: Tau protein aggregation inhibition test (thioflavin T assay). The settings on record: heparin/DTT-induced aggregation, 37° C. 5 days, ThT fluorescence vs tau-only control = 100%. As to the method:
Tau protein (wild-type K18) was dissolved in phosphate-buffered saline (PBS, pH 7.4) at a concentration of 1 mg/mL to prepare a tau protein solution. In order to induce aggregation of tau proteins, 0.1 mg/mL of heparin and 100 μM dithiothreitol (DTT) were added to 1 mg/mL of the tau protein solution, followed by incubation at 37° C. for 5 days. At this time, the result was mixed with each test compound (50, 500 μM) such that the final concentration reached 0.5 mg/mL, followed by further incubation.
The inhibitory effect of each compound against tau aggregation was measured based on the intensity of fluorescence by thioflavin T (ThT) assay (see Example 2). More specifically, 25 μL of the reaction solution was charged in each well of a 96-well plate for fluorescence analysis, and 75 μL of the prepared thioflavin-T solution was then charged in each well. The reaction was allowed to proceed at room temperature in a dark laboratory for 5 minutes, and then fluorescence values were measured at an excitation wavelength of 450 nm and an emission wavelength of 485 nm using a multi-mode microplate reader.
The ratio of the fluorescence value measured in the group obtained by treating with each test compound to 100% of the fluorescence value of the group (control group) obtained by treating only with tau proteins and inducing aggregation for 5 days is set forth in Table 5 below: […]

The target of assay [2] is T2, aggregated tau protein (wild-type K18) (Homo sapiens, UniProt P10636).
T2 construct: Tau protein (wild-type K18)
Put plainly: Tau protein aggregate degradation test (thioflavin T assay). The settings on record: pre-aggregated tau, further 5 days at 37° C., ThT fluorescence vs control = 100%. As to the method:
Tau protein (wild-type K18) was dissolved in phosphate-buffered saline (PBS, pH 7.4) at a concentration of 1 mg/mL to prepare a tau protein solution. 0.1 mg/mL of heparin and 100 μM dithiothreitol (DTT) were added to 1 mg/mL of the tau protein solution, followed by incubation at 37° C. for 5 days to induce tau protein aggregation. The aggregated tau protein was mixed with each test compound in an amount of 50 or 500 μM such that the final concentration reached 0.5 mg/mL, followed by further incubation at 37° C. for 5 days to induce reaction.
The degradation effect of each compound on the tau aggregates was measured by thioflavin T (ThT) assay (see Example 2). More specifically, 25 μL of the reaction solution was charged in each well of a 96-well plate for fluorescence analysis and 75 μL of the prepared thioflavin-T solution was charged in each well. The reaction was allowed to proceed at room temperature in a dark laboratory for 5 minutes and then fluorescence values were measured at an excitation wavelength of 450 nm and an emission wavelength of 485 nm using a multi-mode microplate reader.
The ratio of the fluorescence value measured in the group obtained by treating with each test compound to 100% of the fluorescence value of the group (control group) obtained by treating only with tau proteins and inducing aggregation for 5 days is set forth in Table 6 below: […]

Assay [3] concerns the target T3, aggregated beta-amyloid; human Aβ 1-42 (UniProtKB-P05067, a.a. 672-713) (Homo sapiens, UniProt P05067).
T3 construct: UniProtKB-P05067, a.a; 672-713
The experiment in a line: Beta-amyloid aggregate degradation test (thioflavin T assay). The settings on record: pre-aggregated Aβ, further 3 days at 37° C., ThT fluorescence vs control = 100%. As to the method: Aβ (beta-amyloid; human A3 1-42 monomer (UniProtKB-P05067, a.a. 672-713)) was dissolved at a concentration of 10 mM in dimethyl sulfoxide (DMSO), and the resulting solution was diluted to 250 μM using distilled water, and then incubated at 37° C. for 3 days to induce aggregation. The aggregated beta-amyloid was added with each test compound in an amount of 50 or 500 μM such that the final concentration reached 25 μM, and was further cultured at 37° C. for 3 days to induce reaction. The aggregate degradation effect of each test compound was measured by thioflavin T (ThT) assay (see Example 2). Specifically, 25 μL of the reaction solution was charged in each well of a 96-well plate for fluorescence analysis and 75 μL of the prepared thioflavin-T solution was charged in each well. The reaction was allowed to proceed at room temperature in a dark laboratory for 5 minutes and then fluorescence values were measured at an excitation wavelength of 450 nm and an emission wavelength of 485 nm using a multi-mode microplate reader. The ratio of the fluorescence value measured in the group obtained by treating with each test compound to 100% of the fluorescence value of the group (control group) obtained by treating only with beta-amyloids and inducing aggregation for 3 days is set forth in Table 4 below: […]

T3 sequence (P05067 672-713): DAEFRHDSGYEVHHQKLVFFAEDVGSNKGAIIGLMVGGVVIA
T1 sequence (P10636 561-685 limits assumed): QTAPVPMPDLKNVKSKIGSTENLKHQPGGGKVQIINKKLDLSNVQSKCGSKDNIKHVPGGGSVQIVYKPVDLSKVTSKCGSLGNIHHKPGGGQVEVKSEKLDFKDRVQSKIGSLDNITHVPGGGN
T2 sequence (P10636 561-685 limits assumed): as above

Regarding `CCN1C(=O)/C(=C/c2c[nH]c3ccccc23)NC1=S` [DN204811, (Z)-5-((1H-indol-3-yl)methylene)-3-ethyl-2-thioxoimidazolidin-4-one], the “Tau aggregation remaining (ThT fluorescence, % of tau-only control)” value in assay [1] (50 uM test compound) is 43.22 % of control; in assay [1] (500 uM test compound), 40.21 % of control. Besides, the “ThT fluorescence remaining (% of control)” value in assay [2] (50 uM test compound) is reported as 50.44 % of control; in assay [2] (500 uM test compound), 31.04 % of control. The “Beta-amyloid aggregate degradation activity (% of control)” value in assay [3] (50 uM test compound) is reported as 74.64 % of control; in assay [3] (500 uM test compound), 28.97 % of control.
As for `CCN1C(=O)/C(=C/c2ccoc2)NC1=S` [DN204814, (Z)-3-ethyl-5-(furan-3-ylmethylene)-2-thioxoimidazolidin-4-one], in assay [1] (500 uM test compound), the “Tau aggregation remaining (ThT fluorescence, % of tau-only control)” value is 28.47 % of control. Moreover, the entries for the “ThT fluorescence remaining (% of control)” value in assay [2] (50 uM test compound) and in assay [2] (500 uM test compound) were 30.07 % of control and −22.72 % of control, respectively. The “Beta-amyloid aggregate degradation activity (% of control)” value is recorded as 58.02 % of control in assay [3] (50 uM test compound) and −40.60 % of control in assay [3] (500 uM test compound).
As for `CCN1C(=O)/C(=C/c2c[nH]c3ncccc23)NC1=S` [DN204816, (Z)-5-((1H-pyrrolo[2,3-b]pyridin-3-yl)methylene)-3-ethyl-2-thioxoimidazolidin-4-one], the entries for the “Tau aggregation remaining (ThT fluorescence, % of tau-only control)” value in assay [1] (50 uM test compound) and in assay [1] (500 uM test compound) were 81.42 % of control and 56.3 % of control, respectively. The “ThT fluorescence remaining (% of control)” value is 40.39 % of control in assay [2] (50 uM test compound) and 33.92 % of control in assay [2] (500 uM test compound). Further, the “Beta-amyloid aggregate degradation activity (% of control)” value in assay [3] (500 uM test compound) is reported as 92.41 % of control.
Taken in the same sequence, the figures for `CCN1C(=O)/C(=C/c2c[nH]c3cccnc23)NC1=S` [DN204817, (Z)-5-((1H-pyrrolo[3,2-b]pyridin-3-yl)methylene)-3-ethyl-2-thioxoimidazolidin-4-one] were 87.3 % of control, 66.18 % of control, 49.84 % of control, 43.06 % of control and 78.39 % of control.
In the case of `O=C1NC(=S)S/C1=C\c1csc2ccccc12` [DN204818, (Z)-5-(benzo[b]thiophen-3-ylmethylene)-2-thioxothiazolidin-4-one], the “Tau aggregation remaining (ThT fluorescence, % of tau-only control)” value in assay [1] (50 uM test compound) is reported as 20.35 % of control; in assay [1] (500 uM test compound), 1.71 % of control. In addition, the “ThT fluorescence remaining (% of control)” value in assay [2] (50 uM test compound) is reported as 14.94 % of control; in assay [2] (500 uM test compound) it was 5.16 % of control. Moreover, the entries for the “Beta-amyloid aggregate degradation activity (% of control)” value in assay [3] (50 uM test compound) and in assay [3] (500 uM test compound) were 95.08 % of control and 35.83 % of control, respectively.
For `CCN1C(=O)C(Cc2ccc3occc3c2)NC1=S` (centres unmarked) [DN205353, 5-(benzofnran-5-ylmethyl)-3-ethyl-2-thioxoimidazolidin-4-one], the “Tau aggregation remaining (ThT fluorescence, % of tau-only control)” value in assay [1] (50 uM test compound) is given as 61.551 % of control; in assay [1] (500 uM test compound), 66.948 % of control. For the same compound, the results for the “ThT fluorescence remaining (% of control)” value in assay [2] (50 uM test compound) and in assay [2] (500 uM test compound) were 66.25 % of control and 80.59 % of control, respectively. For the same compound, the “Beta-amyloid aggregate degradation activity (% of control)” value in assay [3] (500 uM test compound) is 90.19 % of control.
Regarding `O=C1NC(=S)S/C1=C\c1c[nH]c2ncccc12` [DN205355, (Z)-5-((1H-pyrrolo[2,3-b]pyridin-3-yl)methylene)-2-thioxothiazolidin-4-one], the “Tau aggregation remaining (ThT fluorescence, % of tau-only control)” value in assay [1] (50 uM test compound) is recorded as 40.038 % of control; in assay [1] (500 uM test compound), 25.883 % of control. For the same compound, the entries for the “ThT fluorescence remaining (% of control)” value in assay [2] (50 uM test compound) and in assay [2] (500 uM test compound) were 49.41 % of control and 30.65 % of control, respectively. The “Beta-amyloid aggregate degradation activity (% of control)” value in assay [3] (50 uM test compound) was 93.80 % of control; in assay [3] (500 uM test compound) it was 44.61 % of control.
Turning to `CCN1C(=O)/C(=C/c2c[nH]c3ccncc23)SC1=S` [DN205780, (Z)-5-((1H-pyrrolo[3,2-c]pyridin-3-yl)methylene)-3-ethyl-2-thioxothiazolidin-4-one], the “Tau aggregation remaining (ThT fluorescence, % of tau-only control)” value is on record as 69.83 % of control in assay [1] (50 uM test compound) and 33.02 % of control in assay [1] (500 uM test compound). Moreover, the “ThT fluorescence remaining (% of control)” value in assay [2] (50 uM test compound) is 27.50 % of control; in assay [2] (500 uM test compound), 10.84 % of control. In addition, the “Beta-amyloid aggregate degradation activity (% of control)” value in assay [3] (50 uM test compound) is reported as 51.31 % of control; in assay [3] (500 uM test compound), 35.73 % of control.
On to `CCN1C(=O)/C(=C/c2c[nH]c3cccnc23)SC1=S` [DN205781, (Z)-5-((1H-pyrrolo[3,2-b]pyridin-3-yl)methylene)-3-ethyl-2-thioxothiazolidin-4-one], for which the figures for the “Tau aggregation remaining (ThT fluorescence, % of tau-only control)” value in assay [1] (50 uM test compound) and in assay [1] (500 uM test compound) were 74.46 % of control and 52.99 % of control, respectively. Besides, the “ThT fluorescence remaining (% of control)” value in assay [2] (50 uM test compound) is 28.74 % of control; in assay [2] (500 uM test compound), 23.79 % of control. The “Beta-amyloid aggregate degradation activity (% of control)” value in assay [3] (50 uM test compound) is listed as 85.76 % of control; in assay [3] (500 uM test compound) it was 55.35 % of control.
